According to ChEMBL document CHEMBL5584202, “Identification of benzothiazoles as novel PCSK9 inhibitors” (Bioorg Med Chem Lett, 2024):
Activity calls are given as the source filed them. No cut-off for these calls is given here.

Experiments:
[1] = test system: HepG2; assay: Downregulation of PCSK9 protein level in human HepG2 cells by Western blotting analysis; assay type: functional, cell-based
[2] = test system: HepG2; assay: Downregulation of LDLR protein level in human HepG2 cells by Western blotting analysis; assay type: functional, cell-based

In the case of `CC(C)(C)OC(=O)N1CCN(Cc2ccc3nc(NC(=O)c4ccc(S(=O)(=O)NCCC#N)cc4)sc3c2)CC1`, the Activity [1] is reported as “Active” and the Activity [2] is reported as “Active”.
